Measured values published in patent US20230089867A1, “CYCLIC PENTAMER COMPOUNDS AS PROPROTEIN CONVERTASE SUBTILISIN/KEXIN TYPE 9 (PCSK9) INHIBITORS FOR THE TREATMENT OF METABOLIC DISORDER” (Novartis AG, priority 2018, published 2023).

Molecular target: human PCSK9 (Homo sapiens, UniProt Q8NBP7)
Experiment: PCSK9 ligand binding TR-FRET assay (interference with binding of human PCSK9 to human LDLR)
Conditions: for Max % inhibition: PCSK9 FRET assay, efficacy (Amax), 100% = 1 uM unlabeled human PCSK9, 0% = DMSO; for IC50: TR-FRET, human PCSK9 Alexa Fluor 647 / human LDLR extracellular domain-Europium Kryptate, read-out: PCSK9 FRET Assay IC50
Summary of the method: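 Threefold compound dilutions were pre-incubated 30 min with PCSK9, after which 4 nM Europium Kryptate-tagged human LDLR ectodomain was added for a further 2 h.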

human PCSK9, sequence (Q8NBP7 153-692): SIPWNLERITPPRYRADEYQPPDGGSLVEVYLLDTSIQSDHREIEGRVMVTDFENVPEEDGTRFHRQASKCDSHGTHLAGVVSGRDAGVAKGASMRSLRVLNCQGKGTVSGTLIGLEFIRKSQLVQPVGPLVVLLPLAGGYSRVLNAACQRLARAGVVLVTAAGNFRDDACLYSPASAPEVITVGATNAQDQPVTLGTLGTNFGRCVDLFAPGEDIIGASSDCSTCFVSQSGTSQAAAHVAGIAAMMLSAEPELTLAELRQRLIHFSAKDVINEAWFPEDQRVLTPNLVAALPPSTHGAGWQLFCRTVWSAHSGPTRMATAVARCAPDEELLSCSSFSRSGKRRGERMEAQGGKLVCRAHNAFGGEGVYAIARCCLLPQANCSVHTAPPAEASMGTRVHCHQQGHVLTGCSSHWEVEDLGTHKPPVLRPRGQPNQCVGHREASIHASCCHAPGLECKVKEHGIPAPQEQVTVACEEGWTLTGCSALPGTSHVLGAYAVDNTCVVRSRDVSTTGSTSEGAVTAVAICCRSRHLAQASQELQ
human PCSK9, sequence (Q8NBP7 31-152 partner limits assumed): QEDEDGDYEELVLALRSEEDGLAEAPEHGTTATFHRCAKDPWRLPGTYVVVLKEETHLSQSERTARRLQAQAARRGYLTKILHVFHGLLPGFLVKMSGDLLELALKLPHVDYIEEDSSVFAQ

Structure (SMILES)	Max % inhibition [%]	IC50 [nM]
CCNC(=O)c1ncn(-c2ccc(Oc3cc(Cl)ccc3CN3C(=O)C[C@@H](Cc4ccccc4)C(=O)N(C)[C@@H](C)CNC(=O)C[C@H](Cc4ccc(Cl)cc4)N(C)C(=O)[C@H](COC)NC(=O)[C@@H]3C)cc2)c1C [Compound 244, 1-(4-(2-(((2S,5S,8S,13S,16R)-16-benzyl-8-(4-chlorobenzyl)-5-(methoxymethyl)-2,7,13,14-tetramethyl-3,6,10,15,18-pentaoxo-1,4,7,11,14-pentaazacyclooctadecan-1-yl)methyl)-5-chlorophenoxy)phenyl)-N-ethyl-5-methyl-1H-imidazole-4-carboxamide]	80.79	22.9
COC[C@@H]1NC(=O)[C@H](CCC(=O)O)N(Cc2ccc(Cl)cc2Oc2ccc(-c3cnc(CN(C)C)n3C)cc2)C(=O)C[C@@H](Cc2ccccc2)C(=O)N(C)[C@H]2CCCC[C@@H]2NC(=O)C[C@H](Cc2ccc(Cl)cc2)N(C)C1=O [Compound 245, 3-((4S,7S,10S,14R,16aS,20aS)-14-benzyl-11-(4-chloro-2-(4-(2-((dimethylamino)methyl)-1-methyl-1H-imidazol-5-yl)phenoxy)benzyl)-4-(4-chlorobenzyl)-7-(methoxymethyl)-5,16-dimethyl-2,6,9,12,15-pentaoxodocosahydrobenzo[l][1,4,7,11,14]pentaazacyclooctadecin-10-yl)propanoic acid]	104.03	1.3
COC[C@@H]1NC(=O)[C@H](C)N(Cc2ccc(Cl)cc2Oc2ccc(-c3cnc4n3CC[N+]3(CCCC3)C4)cc2)C(=O)C[C@@H](Cc2ccccc2)C(=O)N(C)[C@@H](C)CNC(=O)C[C@H](Cc2ccc(Cl)cc2)N(C)C1=O.Cl.[Cl-] [Compound 249, 3-(4-(2-(((2S,5S,8S,13S,16R)-16-benzyl-8-(4-chlorobenzyl)-5-(methoxymethyl)-2,7,13,14-tetramethyl-3,6,10,15,18-pentaoxo-1,4,7,11,14-pentaazacyclooctadecan-1-yl)methyl)-5-chlorophenoxy)phenyl)-5,6-dihydro-8H-spiro[imidazo[1,2-a]pyrazine-7,1′-pyrrolidin]-7-ium chloride hydrochloride]	98.36	2.3
COC[C@@H]1NC(=O)[C@H](CCCN2CCCC2)N(Cc2ccc(Cl)cc2Oc2ccc(-c3cnc(CN(C)C)n3C)cc2)C(=O)C[C@@H](Cc2ccccc2)C(=O)N(C)[C@H]2CCCC[C@@H]2NC(=O)C[C@H](Cc2ccc(Cl)cc2)N(C)C1=O [Compound 251, (4S,7S,10S,14R,16aS,20aS)-14-benzyl-11-(4-chloro-2-(4-(2-((dimethylamino)methyl)-1-methyl-1H-imidazol-5-yl)phenoxy)benzyl)-4-(4-chlorobenzyl)-7-(methoxymethyl)-5,16-dimethyl-10-(3-(pyrrolidin-1-yl)propyl)hexadecahydrobenzo[l][1,4,7,11,14]pentaazacyclooctadecine-2,6,9,12,15(3H)-pentaone]	99.24	0.8
COC[C@@H]1NC(=O)[C@H](CCCN2CCOCC2)N(Cc2ccc(Cl)cc2Oc2ccc(-c3cnc(CN4CCCC4)n3C)cc2)C(=O)C[C@@H](Cc2ccccc2)C(=O)N(C)[C@H]2CCCC[C@@H]2NC(=O)C[C@H](Cc2ccc(Cl)cc2)N(C)C1=O [Compound 252, (4S,7S,10S,14R,16aS,20aS)-14-benzyl-11-(4-chloro-2-(4-(1-methyl-2-(pyrrolidin-1-ylmethyl)-1H-imidazol-5-yl)phenoxy)benzyl)-4-(4-chlorobenzyl)-7-(methoxymethyl)-5,16-dimethyl-10-(3-morpholinopropyl)hexadecahydrobenzo[l][1,4,7,11,14]pentaazacyclooctadecine-2,6,9,12,15(3H)-pentaone]	92.00	2.1
COC[C@@H]1NC(=O)[C@H](CCCN2CC(F)(F)C(F)(F)C2)N(Cc2ccc(Cl)cc2Oc2ccc(-c3cnc(CN(C)C)n3C)cc2)C(=O)C[C@@H](Cc2ccccc2)C(=O)N(C)[C@H]2CCCC[C@@H]2NC(=O)C[C@H](Cc2ccc(Cl)cc2)N(C)C1=O [Compound 254, (4S,7S,10S,14R,16aS,20aS)-14-benzyl-11-(4-chloro-2-(4-(2-((dimethylamino)methyl)-1-methyl-1H-imidazol-5-yl)phenoxy)benzyl)-4-(4-chlorobenzyl)-7-(methoxy-methyl)-5,16-dimethyl-10-(3-(3,3,4,4-tetrafluoropyrrolidin-1-yl)propyl)hexadecahydro-benzo[l][1,4,7,11,14]pentaazacyclooctadecine-2,6,9,12,15(3H)-pentaone]	102.70	3
COC[C@@H]1NC(=O)[C@H](C)N(Cc2ccc(Cl)cc2Oc2ccc(-c3cnc(CN4CCCC4)n3C)cc2)C(=O)C[C@@H](Cc2ccccc2)C(=O)N(C)[C@@H](C)CNC(=O)C[C@H](Cc2ccc(Cl)cc2)NC1=O [Compound 256, (2S,5S,8S,13S,16R)-16-benzyl-1-(4-chloro-2-(4-(1-methyl-2-(pyrrolidin-1-ylmethyl)-1H-imidazol-5-yl)phenoxy)benzyl)-8-(4-chlorobenzyl)-5-(methoxymethyl)-2,13,14-trimethyl-1,4,7,11,14-pentaazacyclooctadecane-3,6,10,15,18-pentaone]	79.36	52.4

Next, values leading:

Max % inhibition [%]	IC50 [nM]	Structure (SMILES)
97.38	0.9	C[C@H]1C(=O)N[C@@H](CO)C(=O)N(C)[C@@H](Cc2ccc(Cl)cc2)CC(=O)N[C@H]2CCCC[C@@H]2N(C)C(=O)[C@H](Cc2ccccc2)CC(=O)N1Cc1ccc(Cl)cc1Oc1ccc(-c2cnc(CN(C)C)n2C)cc1 [Compound 243, (4S,7S,10S,14R,16aS,20aS)-14-benzyl-11-(4-chloro-2-(4-(2-((dimethylamino)methyl)-1-methyl-1H-imidazol-5-yl)phenoxy)benzyl)-4-(4-chlorobenzyl)-7-(hydroxymethyl)-5,10,16-trimethylhexadecahydrobenzo[l][1,4,7,11,14]pentaazacyclooctadecine-2,6,9,12,15(3H)-pentaone]
103.97	2.4	COC[C@@H]1NC(=O)[C@H](C)N(Cc2ccc(Cl)cc2Oc2ccc(-c3cnc(CN(C)C)n3C)cc2)C(=O)C[C@@H](Cc2c(F)c(F)cc(F)c2F)C(=O)N(C)[C@@H](C)CNC(=O)C[C@H](Cc2ccc(Cl)cc2)N(C)C1=O [Compound 246, (2S,5S,8S,13S,16R)-1-(4-chloro-2-(4-(2-((dimethylamino)methyl)-1-methyl-1H-imidazol-5-yl)phenoxy)benzyl)-8-(4-chlorobenzyl)-5-(methoxymethyl)-2,7,13,14-tetramethyl-16-(2,3,5,6-tetrafluorobenzyl)-1,4,7,11,14-pentaazacyclooctadecane-3,6,10,15,18-pentaone]
98.86	33.2	COC[C@@H]1NC(=O)[C@H](C)N(Cc2ccc(Cl)cc2Oc2ccc(-c3cnc(CN(C)C)n3C)cc2)C(=O)C[C@@H](Cc2ccccc2)C(=O)N(C)[C@H]2C[C@H]2NC(=O)C[C@H](Cc2ccc(Cl)cc2)N(C)C1=O [Compound 247, (1R,5S,8S,11S,15R,18S)-15-benzyl-12-(4-chloro-2-(4-(2-((dimethylamino)methyl)-1-methyl-1H-imidazol-5-yl)phenoxy)benzyl)-5-(4-chlorobenzyl)-8-(methoxymethyl)-6,11,17-trimethyI-2,6,9,12,17-pentaazabicyclo[16.1.0]nonadecane-3,7,10,13,16-pentaone]
106.74	2.2	CC[C@H]1C(=O)N[C@@H](COC)C(=O)N(C)[C@@H](Cc2ccc(Cl)cc2F)CC(=O)NC[C@H](C)N(C)C(=O)[C@H](Cc2ccccc2)CC(=O)N1Cc1ccc(Cl)cc1Oc1ccc(-c2cnc(CN(C)C)n2C)cc1 [Compound 248, (2S,5S,8S,13S,16R)-16-benzyl-1-(4-chloro-2-(4-(2-((dimethylamino)methyl)-1-methyl-1H-imidazol-5-yl)phenoxy)benzyl)-8-(4-chloro-2-fluorobenzyl)-2-ethyl-5-(methoxymethyl)-7,13,14-trimethyl-1,4,7,11,14-pentaazacyclooctadecane-3,6,10,15,18-pentaone]
84.24	0.4	COC[C@@H]1NC(=O)[C@H](CCN(C)C)N(Cc2ccc(Cl)cc2Oc2ccc(-c3cnc(CN(C)C)n3C)cc2)C(=O)C[C@@H](Cc2ccccn2)C(=O)N(C)[C@H]2CCCC[C@@H]2NC(=O)C[C@H](Cc2ccc(Cl)cc2)N(C)C1=O [Compound 250, (4S,7S,10S,14R,16aS,20aS)-11-(4-chloro-2-(4-(2-((dimethylamino)methyl)-1-methyl-1H-imidazol-5-yl)phenoxy)benzyl)-4-(4-chlorobenzyl)-10-(2-(dimethylamino)ethyl)-7-(methoxymethyl)-5,16-dimethyl-14-(pyridin-2-ylmethyl)hexadecahydrobenzo[l][1,4,7,11,14]pentaazacyclooctadecine-2,6,9,12,15(3H)-pentaone]
98.40	1.5	COC[C@@H]1NC(=O)[C@H](C)N(Cc2ccc(Cl)cc2Oc2ccc(-c3cnc(CN(C)C)n3C)cc2)C(=O)C[C@@H](Cn2cccn2)C(=O)N(C)[C@H]2CCCC[C@@H]2NC(=O)C[C@H](Cc2ccc(Cl)cc2)N(C)C1=O [Compound 253, (4S,7S,10S,16aS,20aS)-14-((1H-pyrazol-1-yl)methyl)-11-(4-chloro-2-(4-(2-((dimethylamino)methyl)-1-methyl-1H-imidazol-5-yl)phenoxy)benzyl)-4-(4-chlorobenzyl)-7-(methoxymethyl)-5,10,16-trimethylhexadecahydrobenzo[l][1,4,7,11,14]pentaazacyclooctadecine-2,6,9,12,15(3H)-pentaone]
64.95	19.7	COC[C@@H]1NC(=O)[C@H](C)N(Cc2ccc(Cl)cc2Oc2ccc(-c3cnc(CN(C)C)n3C)cc2)C(=O)C[C@@H](C)C(=O)N(C)[C@@H](CC(C)C)CNC(=O)C[C@H](Cc2ccc(Cl)cc2)N(C)C1=O [Compound 255, (5S,8S,13S,16R)-1-(4-chloro-2-(4-(2-((dimethylamino)methyl)-1-methyl-1H-imidazol-5-yl)phenoxy)benzyl)-8-(4-chlorobenzyl)-13-isobutyl-5-(methoxymethyl)-2,7,14,16-tetramethyl-1,4,7,11,14-pentaazacyclooctadecane-3,6,10,15,18-pentaone]
